From patent US20260183274A1, “PDK1 REGULATORY COMPOUND AND COMPOSITION CONTAINING THE SAME” (PROVIBIO CO., LTD., priority 2024, published 2026) come the findings set out here.

Data set [1] has as its system Human Osteosarcoma, Saos-2. The data set can be described thus: Relative cell viability CCK-8, Saos-2. Type of data set: cell-based. The method, then:
Human-derived head and neck cancer cell line Fadu and osteosarcoma cell line Saos-2 were cultured in MEM medium containing 10% FBS, 100 U/mL penicillin, and 100 μg/mL streptomycin.
Following stabilization, the cells were harvested using Trypsin-EDTA treatment, centrifuged at 1,200 rpm for 3 minutes, the supernatant was removed, and the cells were resuspended in the same medium. They were then seeded into a 96-well plate (Costar 96-well cell culture plate, Corning) at 100 μL per well, and the conditions were adjusted as indicated in Table 5.
The cells were cultured in a 5% CO2 incubator at 37° C. for 24 hours, and after stabilization of the cells, each plate was washed with 200 μL of PBS per well and treated with 50 μL of culture medium per well.
After that, 10 μL of CCK-8 was added to each well, and the plate was incubated again at 37° C. in a 5% CO2 incubator for 2 hours.
In other words, when the survival rate of untreated cells (DMSO) is set at 100%, the relative cell survival rate in each group treated with the drug at different concentrations is indicated.

For data set [2], the system named is T cells isolated from mouse spleens. The data set is described as follows: T cell proliferation inhibition (CFSE flow cytometry, anti-CD3/anti-CD28 stimulation). Type of data set: cell-based. As to conditions: mouse spleen T cells, 3 days. The gist of the method:
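Splenic T cells from 7-week-old C57BL/6 mice were MACS-isolated, CFSE-labelled, seeded at 2×10^5 cells/well and activated with anti-CD3/anti-CD28 (0.5 μg/mL each). Compound at 10 nM–50 μM (six levels, triplicate) was present for 3 days at 37 °C before flow cytometric readout of proliferation inhibition rate.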
A general note: Flow cytometry measures light scatter and fluorescence of single cells or particles in a stream.

The subject of data set [3] is Human Bladder cancer cell, T24. The data set can be described thus: Relative cell viability CCK-8, T24. Type of data set: cell-based. The conditions noted are these: 48 hours. The gist of the method:
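Cells were seeded, stabilized 24 h at 37 °C, 5% CO2, then exposed to compound at several concentrations. Viability was measured by CCK-8 after a 2 h incubation and expressed relative to untreated (DMSO) cells set at 100%.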

The next data set has as its target T1, PDK1 (Homo sapiens, UniProt O15530).
T1 construct: purchased Promega V9681
T1 sequence (O15530 1-556): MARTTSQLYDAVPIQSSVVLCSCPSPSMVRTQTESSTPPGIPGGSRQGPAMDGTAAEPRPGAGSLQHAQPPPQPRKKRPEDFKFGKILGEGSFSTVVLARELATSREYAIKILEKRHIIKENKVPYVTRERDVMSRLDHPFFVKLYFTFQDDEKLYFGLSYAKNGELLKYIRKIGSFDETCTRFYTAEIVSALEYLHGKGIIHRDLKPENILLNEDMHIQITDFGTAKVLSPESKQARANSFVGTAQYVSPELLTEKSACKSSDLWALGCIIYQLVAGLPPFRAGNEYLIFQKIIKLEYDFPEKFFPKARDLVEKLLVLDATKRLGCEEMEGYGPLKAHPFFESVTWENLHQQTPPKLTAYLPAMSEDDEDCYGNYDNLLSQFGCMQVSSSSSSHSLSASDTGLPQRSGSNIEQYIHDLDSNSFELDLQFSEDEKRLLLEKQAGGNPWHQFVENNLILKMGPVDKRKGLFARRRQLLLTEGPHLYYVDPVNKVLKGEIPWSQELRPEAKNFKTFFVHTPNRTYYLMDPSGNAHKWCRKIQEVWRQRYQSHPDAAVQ
The data set is described as follows: PDK1 kinase activity inhibition, IC50 (in vitro kinase assay, luminescence). The conditions noted are these: FIG. 4; read-out: IC50 for inhibiting PDK1 kinase activity. Type of data set: biochemical. The method, then:
As shown in the table below, this invention establishes an in vitro kinase assay system to quantitatively evaluate PDK1 kinase activity inhibition, and utilizes this system to compare and analyze the activity of new PDK1 inhibitor candidate compounds.
Specifically, after reacting ATP (100 μM), substrate (PDKtide, 0.5 μg/μL), and PDK1 enzyme (30 ng) at a specific concentration, the difference in ATP consumption between the group treated with each candidate compound and the DMSO control group was measured using luciferase-based luminescence signals (RLU).
Additionally, enzyme kinetics analysis was performed to quantitatively analyze the effect of the compounds of the present invention on the enzymatic activity of PDK1 (3-Phosphoinositide-dependent protein kinase-1) and to confirm the inhibition pattern.
Prior to the analysis, the half-maximal inhibitory concentration (IC50) values of the compounds GO15F, GO86, and GO88 of the present invention for inhibiting PDK1 kinase activity were determined, and the results are shown in FIG. 4.

For data set [4], the system named is Human B Lymphocyte cell line, SU-DHL-8. The data set is described as follows: Relative cell viability CCK-8, SU-DHL-8. The class given is cell-based. As to conditions: human, 48 h. The gist of the method:
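Cells grown in RPMI-1640 with 10% FBS, treated with compound at several concentrations, then given CCK-8 for 4 h at 37° C. Viability expressed as percent of DMSO-treated cells.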

Molecules are shown by their SMILES.

Take `Nc1ncccc1C(=O)NCCCCCCCCCCCCN1CCNCC1` [Compound 14, 2-Amino-N-(12-(piperazin-1-yl)dodecyl)nicotinamide]: the “Relative cell viability (%), Saos-2” value in data set [1] (50 μM, 48 hours, listed as GO88, 50 µM) is recorded as 0.00%. The molecule further returned a viability at 1 µM in data set [1] (Homo sapiens, SAOS-2, 48 h, 1 μM) of 47.1%. The molecule further came in with a viability at 10 µM in data set [1] (Homo sapiens, SAOS-2, 48 h, 10 μM) of 34.2%. The molecule further yielded a viability at 30 µM in data set [1] (Homo sapiens, SAOS-2, 48 h, 30 μM) of 16.3%. The “Proliferation inhibition rate (%)” value in data set [2] (compound 10 nM, listed as GO88, 0.01 µM) is on record as 17.83%; in data set [2] (compound 10 μM, listed as GO88, 10 µM), 85.09%; in data set [2] (compound 30 μM, listed as GO88, 30 µM), 98.95%. Moreover, the “Relative cell viability (%), T24” value is reported as 9.88% in data set [3] (1 μM, listed as GO88, 1 µM); 11.01% in data set [3] (10 μM, listed as GO88, 10 µM); 9.22% in data set [3] (30 μM, listed as GO88, 30 µM); 7.47% in data set [3] (50 μM, listed as GO88, 50 µM). At PDK1, the concentration for half-maximal inhibition (IC50) was determined as 13 nM. In addition, the “Relative cell viability (%), SU-DHL-8” value in data set [4] (1 µM) stood at 9.28%; in data set [4] (10 µM) it was 3.31%; in data set [4] (30 µM) it was 1.16%; in data set [4] (50 µM), 0.32%.

A word on the viability: it is a read-out of living cells in per cent, often relative to untreated cells. A lower viability goes with more harm to the cells. One may read the IC50 as the point on the concentration scale where inhibition reaches its midpoint.
